Results published in article doi:10.1101/2025.01.10.632200, “Chemoproteomic Profiling of C. albicans for Characterization of Anti-fungal Kinase Inhibitors” (bioRxiv, 2025).

What was measured:
Format in all cases: biochemical
Yck2 [1] = molecular target: T1, Yck2 (Candida albicans, UniProt A0A1D8PKB4); assay: purified enzyme kinase assay; also NanoBRET ([…]) and MIB/MS competition
p38α = molecular target: T2, p38α (Homo sapiens, UniProt Q16539); assay: purified enzyme kinase assay; also NanoBRET ([…])
T2 construct: gene MAPK14
T2 sequence (Q16539 2-360): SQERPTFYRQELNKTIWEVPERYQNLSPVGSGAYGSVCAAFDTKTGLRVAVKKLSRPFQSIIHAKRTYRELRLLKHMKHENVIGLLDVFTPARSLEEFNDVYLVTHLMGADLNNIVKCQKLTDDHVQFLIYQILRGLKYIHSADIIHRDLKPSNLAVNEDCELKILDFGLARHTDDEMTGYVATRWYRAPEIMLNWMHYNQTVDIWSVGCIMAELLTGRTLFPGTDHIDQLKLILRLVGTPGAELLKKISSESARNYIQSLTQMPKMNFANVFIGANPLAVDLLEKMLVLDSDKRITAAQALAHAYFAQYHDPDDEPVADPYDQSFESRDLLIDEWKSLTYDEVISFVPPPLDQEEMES

CK1α = molecular target: T3, CK1α (Homo sapiens, UniProt P48729); assay: purified enzyme kinase assay
T3 construct: gene CSNK1A1
T3 sequence (P48729 2-337): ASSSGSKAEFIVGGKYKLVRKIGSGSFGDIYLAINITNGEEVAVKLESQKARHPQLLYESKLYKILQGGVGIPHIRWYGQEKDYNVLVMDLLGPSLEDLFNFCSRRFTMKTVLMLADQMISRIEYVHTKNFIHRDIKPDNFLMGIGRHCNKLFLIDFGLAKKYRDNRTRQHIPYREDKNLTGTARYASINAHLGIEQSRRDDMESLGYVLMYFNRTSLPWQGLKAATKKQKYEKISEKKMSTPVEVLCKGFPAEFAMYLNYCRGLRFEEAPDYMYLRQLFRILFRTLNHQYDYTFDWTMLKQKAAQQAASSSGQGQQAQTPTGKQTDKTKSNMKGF

Yck2 [2] = molecular target: T1, Yck2; assay: purified enzyme kinase assay; also NanoBRET ([…])
Yck2 [3] = molecular target: T1, Yck2; assay: purified enzyme kinase assay

T1 sequence (A0A1D8PKB4 entry or part of it): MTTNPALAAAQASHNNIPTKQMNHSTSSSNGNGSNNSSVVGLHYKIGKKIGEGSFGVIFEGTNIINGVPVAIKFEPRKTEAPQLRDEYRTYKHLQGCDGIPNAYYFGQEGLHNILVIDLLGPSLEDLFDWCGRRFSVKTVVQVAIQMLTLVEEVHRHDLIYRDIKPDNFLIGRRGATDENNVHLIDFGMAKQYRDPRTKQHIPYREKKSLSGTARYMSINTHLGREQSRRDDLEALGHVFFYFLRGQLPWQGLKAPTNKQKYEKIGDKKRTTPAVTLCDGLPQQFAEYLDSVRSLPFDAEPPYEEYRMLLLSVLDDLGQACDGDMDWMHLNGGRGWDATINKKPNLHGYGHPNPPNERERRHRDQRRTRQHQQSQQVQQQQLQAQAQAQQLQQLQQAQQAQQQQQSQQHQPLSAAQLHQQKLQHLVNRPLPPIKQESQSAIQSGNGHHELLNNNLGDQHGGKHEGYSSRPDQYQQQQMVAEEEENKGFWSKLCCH

## Cc1n[nH]c2ccc(-c3cc(OC[C@@H](N)Cc4ccccc4)cnc3-c3ccoc3)cc12 [GSK, GSK507358A]
Yck2 [1]
  IC50: 0.16 µM

## Cc1ccc2c(-c3ccncc3)c(-c3ccc(F)cc3)nn2c1 [GW, GW461484A]
p38α
  IC50: 0.17 µM

## CN1CCC(F)(Cn2cnc(-c3ccc(F)cn3)c2-c2ccnc3[nH]ccc23)CC1 [MU1742]
CK1α
  IC50: 0.014 µM

## CC(=O)c1cnc2ccc(-c3cc(Cl)c(O)c(Cl)c3)nc2c1N[C@H]1CC[C@H](CN(C)C)CC1 [OTS-167]
Yck2 [2]
  IC50: 0.13 µM

## Cc1nc(N)sc1-c1ccnc(Nc2ccc(N3CCOCC3)cc2)n1 [Cyc-116]
Yck2 [3]
  IC50: 0.14 µM
